Results from the supplement of paper PMC10307832.

Assays:
Test in all cases: relative viability (nuclei count vs DMSO), 5 days (fraction); higher = more cells survive
[1] = compound: Cc1cc(Nc2cc(N3CCN(C)CC3)nc(Sc3ccc(NC(=O)C4CC4)cc3)n2)n[nH]1 [Tozasertib]
Method in brief: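 Viability here means nuclei in treated wells divided by nuclei in vehicle wells, reported as the median across plates. Only plates with control CV below 25% and at least one doubling passed. Lung cancer cell lines in 1536-well plates were exposed to five √10-spaced library-drug doses for 5 days and counted from 4× Hoechst images in MetaXpress.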

[2] = compound: Cc1cc(Nc2cc(N3CCN(C)CC3)nc(Sc3ccc(NC(=O)C4CC4)cc3)n2)n[nH]1 [Tozasertib] + COc1cccc2cc(-c3nc([C@H]4CC[C@H](C(=O)O)CC4)n4ncnc(N)c34)[nH]c12 [OSI-027] (partner 0.5 µM)
Method in brief: (§1)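 Relative viability is defined as nuclei in treated wells over nuclei in vehicle wells. Duplicate plates were run and medians reported. Lung cancer cell lines in 1536-well plates were dosed by pin tool one day after seeding, with one drug or with a fixed anchor-drug dose plus five library-drug doses (not always all listed) in √10 steps, and nuclei were counted after 5 days.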

[3] = compound: Cc1cc(Nc2cc(N3CCN(C)CC3)nc(Sc3ccc(NC(=O)C4CC4)cc3)n2)n[nH]1 [Tozasertib] + CC(C)C[C@H](NC(=O)[C@H](Cc1ccccc1)NC(=O)c1cnccn1)B(O)O [Bortezomib] (partner 0.002 µM)
Method in brief: as §1

[4] = compound: Cc1cc(Nc2cc(N3CCN(C)CC3)nc(Sc3ccc(NC(=O)C4CC4)cc3)n2)n[nH]1 [Tozasertib] + CS(=O)(=O)N1CCN(Cc2cc3nc(-c4cccc5[nH]ncc45)nc(N4CCOCC4)c3s2)CC1 [Pictilisib] (partner 1 µM)
Method in brief: as §1

| Cell Line | relative viability ([1]; 0.004 µM) | relative viability ([1]; 0.01265 µM) | relative viability ([1]; 0.04 µM) | relative viability ([1]; 0.1 µM, anchor plate) | relative viability ([1]; 0.1265 µM) | relative viability ([2]; first compound 0.004 µM) | relative viability ([2]; first compound 0.01265 µM) | relative viability ([2]; first compound 0.04 µM) | relative viability ([2]; first compound 0.1265 µM) | relative viability ([3]; first compound 0.004 µM) | relative viability ([3]; first compound 0.01265 µM) | relative viability ([3]; first compound 0.04 µM) | relative viability ([4]; first compound 0.004 µM) | relative viability ([4]; first compound 0.01265 µM) | relative viability ([4]; first compound 0.04 µM) | relative viability ([4]; first compound 0.1265 µM) | relative viability ([3]; first compound 0.1265 µM) |
| --- | --- | --- | --- | --- | --- | --- | --- | --- | --- | --- | --- | --- | --- | --- | --- | --- | --- |
| LU99A | 1.05 | 0.904 | 0.824 | 0.282 | 0.594 | 0.307 | 0.278 | 0.269 | 0.269 | 1.1 | 0.917 | 0.881 | 0.338 | 0.339 | 0.3 | 0.216 |  |
| NCI-H358 | 1 |  | 0.977 | 0.109 | 0.37 | 0.779 | 0.803 | 0.982 | 0.125 |  |  |  | 0.353 | 0.263 | 0.366 | 0.178 |  |
| NCI-H522 | 1.12 | 1 | 1.05 | 0.565 | 0.671 | 0.773 | 0.838 | 0.783 | 0.628 |  |  |  |  |  |  |  |  |
| NCI-H1395 | 1.03 | 0.817 | 0.776 | 0.768 | 0.495 | 0.7 | 0.6 | 0.646 | 0.437 |  |  |  | 0.657 | 0.528 | 0.604 | 0.469 |  |
| NCI-H1703 | 1.04 | 0.857 | 1.21 |  | 0.556 |  |  |  |  | 0.41 | 0.29 | 0.401 | 0.287 | 0.221 | 0.248 | 0.23 | 0.222 |
| NCI-H1793 | 1.03 | 0.76 | 1.01 | 0.384 | 0.892 | 0.229 | 0.214 | 0.358 | 0.228 |  |  |  | 0.396 | 0.357 | 0.351 | 0.261 |  |
| NCI-H1944 | 1.01 | 0.963 | 0.901 | 0.263 | 0.526 | 0.471 | 0.397 | 0.422 | 0.247 |  |  |  | 0.36 | 0.339 | 0.331 | 0.275 |  |
| NCI-H2170 | 0.964 | 1.01 | 0.954 | 0.755 | 0.893 | 0.639 | 0.713 | 0.792 | 0.628 |  |  |  | 0.3 | 0.327 | 0.295 | 0.276 |  |
| NCI-H2342 | 0.997 |  |  | 0.52 | 0.909 | 0.654 | 0.525 | 0.657 | 0.582 |  |  |  |  |  |  |  |  |
| SK-MES-1 | 1.03 | 1 | 1.1 | 0.885 | 0.955 | 0.518 | 0.633 | 0.647 | 0.531 |  |  |  | 0.401 | 0.302 | 0.35 | 0.326 |  |
| SW 900 | 1.06 | 0.736 | 0.933 | 0.566 | 0.62 | 0.767 | 0.54 | 0.75 | 0.28 |  |  |  |  |  |  |  |  |
